Reference: paper PMC8143339, “PK/PD Modeling of the PDE7 Inhibitor—GRMS-55 in a Mouse Model of Autoimmune Hepatitis” (Pharmaceutics, 2021)

How the values were obtained:
[1] = test system: paw edema in collagen-induced arthritis; design: method as in PMID 31899535; conditions: rats with collagen-induced arthritis, PK/PD arthritis progression model; cited from earlier work
[2] = test system: TNF-α production; design: method as in PMID 31899535; conditions: rat lipopolysaccharide-induced endotoxemia, PK/PD model; cited from earlier work
[3] = test system: PDE4B; conditions: reported in previous publication; read-out: IC50 for PDE4B inhibition; cited from earlier work
[4] = design: method as in PMID 31899535; conditions: cited from earlier work
[5] = test system: ConA-induced hepatitis; assay: Preliminary pharmacological evaluation in ConA-induced hepatitis; type: in vivo, BALB/c mice; conditions: 8 h after ConA 20 mg/kg IV; IP pretreatment: rolipram 10, BRL-50481 50, GRMS-55 50 mg/kg; vs vehicle control
Description: ConA was dissolved in sterile saline (2 mg·mL^−1). The studied compounds (GRMS-55, rolipram, and BRL-50481) were dissolved in a mixture of DMSO, PEG 400, and water for injection at a ratio of 25:25:50 (v/v/v). Mice were given an IP injection of the investigated compounds or the corresponding volume of vehicle alone and, thirty minutes later, intravenously (IV) administered with ConA solution. An additional control group received vehicle alone IP instead of the studied compounds followed by IV injection of sterile saline. ConA was given at a dose of 20 mg·kg^−1. Mice were exsanguinated at several time points post-ConA injection. Blood samples were allowed to clot for 0.5 h at room temperature and then centrifuged at 3000× g for 10 min to obtain the serum, which was stored at −20 °C until further analysis.
The influence of PDE inhibitors on the levels of inflammatory mediators and transaminases in ConA-treated mice was investigated in two separate experiments. In the preliminary study, the animals were pretreated IP with GRMS-55 at a dose of 50 mg·kg^−1, the PDE4-selective inhibitor rolipram at a dose of 10 mg·kg^−1, or the PDE7-selective inhibitor BRL-50481 at a dose of 50 mg·kg^−1. Doses of the investigated compounds were chosen based on the results of previous studies. Subsequently, mice were given an IV injection of ConA and sacrificed at 8 h following mitogen dosing. The levels of TNF-α, IL-6, and IFN-γ and the activities of ALT and AST in the mouse serum were measured. This preliminary experiment allowed comparing the activity of the studied PDE inhibitors in this AIH model and helped to select the doses of GRMS-55 for a subsequent pharmacodynamic study. In the final pharmacodynamic experiment, GRMS-55 was administered at two dose levels (50 and 100 mg·kg^−1) followed by ConA administration at a dose of 20 mg·kg^−1. Animals were sacrificed at various time points post-ConA dosing (1, 2, 4, 8 and 24 h). The levels of TNF-α, IL-1β, IL-4, IL-6, IL-10, IL-12, IL-17A, and IFN-γ were measured using a multiplex Luminex assay. In addition, the activities of ALT and AST in the mouse serum were assessed. The concentration–time profiles of the selected biomarkers obtained in this experiment combined with the results of pharmacokinetic analysis allowed the development of a semi-mechanistic PK/PD/disease progression model and the investigation of concentration–effect relationships of GRMS-55.
The serum samples from the preliminary pharmacological study were analyzed using ELISA tests according to the protocols provided by the manufacturers. The TNF-α concentrations were measured using the Mouse TNF-α Quantikine ELISA Kit (R&D Systems, Minneapolis, MN, USA), while the concentrations of IL-6 and IFN-gamma were quantified by ELISA kits manufactured by Cloud-Clone Corp. (Houston, TX, USA). The absorbance of samples was measured on a POLARstar Omega multi-mode microplate reader (BMG LABTECH, Ortenberg, Germany) set at 450 nm wavelength. TNF-α, IL-1β, IL-6, IL-4, IL-10, IL-12, IL-17A, and IFN-γ serum levels in samples from pharmacodynamic experiment were determined by a premixed Magnetic Luminex Assay (R&D Systems, Inc., Minneapolis, MN, USA) according to the manufacturer’s protocol. Serum AST and ALT activities were quantified on a chemistry analyzer BS-800 (Shenzhen Mindray Bio-medical Electronics Co., Ltd., Shenzhen, China).

In the case of `Cn1c(=O)c2c(nc(NCCc3ccccc3)n2CCCC(=O)NN=Cc2ccccc2O)n(C)c1=O` [GRMS-55, 4-(1,3-dimethyl-2,6-dioxo-8-(phenethylamino)-1,2,3,6-tetrahydro-7H-purin-7-yl)-N′-(2-hydroxybenzylidene)butanehydrazide], the “IC50, decrease of paw edema” value [1] is listed as 0.26 µg/mL, the “IC50, suppression of TNF-α production” value [2] is listed as 1.06 µg/mL and the IC50 [3] is listed as 26.9 µM. For the same molecule, the “apparent volume of distribution at steady state” value ([4]; male Wistar rats) was about 7 L/kg, the half-life ([4]; male and female rats) was “approximately 20 min” and the “effect on serum IL-6 concentration” value [5] was “decreased”.
